Measurements: patent publication US6399585B1, “In Utero treatment of CFTR-related deficiencies” (priority 1996, dated 2002)

How the values were obtained:
ENaC = target: T1, ENaC (Homo sapiens, UniProt P37088+P51168+P51170); conditions: cited from earlier work
T1 sequence (P37088 1-669): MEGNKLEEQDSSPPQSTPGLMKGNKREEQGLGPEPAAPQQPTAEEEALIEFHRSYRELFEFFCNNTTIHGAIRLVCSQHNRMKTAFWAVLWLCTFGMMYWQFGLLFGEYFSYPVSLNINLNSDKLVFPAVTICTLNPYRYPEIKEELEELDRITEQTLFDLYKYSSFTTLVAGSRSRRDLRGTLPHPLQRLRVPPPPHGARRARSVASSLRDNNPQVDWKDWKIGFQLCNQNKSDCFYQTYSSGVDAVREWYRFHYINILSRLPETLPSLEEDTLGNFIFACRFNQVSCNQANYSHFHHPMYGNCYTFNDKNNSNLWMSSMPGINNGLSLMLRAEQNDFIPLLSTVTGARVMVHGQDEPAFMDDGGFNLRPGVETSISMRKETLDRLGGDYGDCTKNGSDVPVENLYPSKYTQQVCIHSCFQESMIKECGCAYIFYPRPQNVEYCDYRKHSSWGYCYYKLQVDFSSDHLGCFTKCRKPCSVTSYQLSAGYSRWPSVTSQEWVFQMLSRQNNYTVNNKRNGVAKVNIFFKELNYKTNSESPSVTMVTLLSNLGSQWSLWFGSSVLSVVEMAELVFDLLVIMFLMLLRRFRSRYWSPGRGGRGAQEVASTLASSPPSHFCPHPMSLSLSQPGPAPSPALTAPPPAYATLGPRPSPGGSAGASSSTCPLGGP
T1 sequence (P51168 1-640): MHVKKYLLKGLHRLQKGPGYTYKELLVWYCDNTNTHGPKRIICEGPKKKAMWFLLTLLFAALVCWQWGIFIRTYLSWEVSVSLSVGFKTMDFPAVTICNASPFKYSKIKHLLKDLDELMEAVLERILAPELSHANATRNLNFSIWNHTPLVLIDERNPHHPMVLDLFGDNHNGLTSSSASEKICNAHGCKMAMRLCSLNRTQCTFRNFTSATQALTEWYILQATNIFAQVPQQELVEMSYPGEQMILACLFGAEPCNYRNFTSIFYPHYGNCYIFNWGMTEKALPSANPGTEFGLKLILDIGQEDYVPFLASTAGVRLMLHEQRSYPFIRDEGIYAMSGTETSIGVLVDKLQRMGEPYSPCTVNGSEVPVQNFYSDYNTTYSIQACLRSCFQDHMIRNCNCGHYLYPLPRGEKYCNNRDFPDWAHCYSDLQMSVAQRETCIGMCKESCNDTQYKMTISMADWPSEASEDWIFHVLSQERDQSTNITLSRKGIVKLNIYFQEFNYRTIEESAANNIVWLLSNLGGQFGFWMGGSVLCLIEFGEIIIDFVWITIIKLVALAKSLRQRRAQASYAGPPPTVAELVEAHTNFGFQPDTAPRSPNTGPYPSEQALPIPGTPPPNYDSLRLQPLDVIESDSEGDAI
T1 sequence (P51170 1-649): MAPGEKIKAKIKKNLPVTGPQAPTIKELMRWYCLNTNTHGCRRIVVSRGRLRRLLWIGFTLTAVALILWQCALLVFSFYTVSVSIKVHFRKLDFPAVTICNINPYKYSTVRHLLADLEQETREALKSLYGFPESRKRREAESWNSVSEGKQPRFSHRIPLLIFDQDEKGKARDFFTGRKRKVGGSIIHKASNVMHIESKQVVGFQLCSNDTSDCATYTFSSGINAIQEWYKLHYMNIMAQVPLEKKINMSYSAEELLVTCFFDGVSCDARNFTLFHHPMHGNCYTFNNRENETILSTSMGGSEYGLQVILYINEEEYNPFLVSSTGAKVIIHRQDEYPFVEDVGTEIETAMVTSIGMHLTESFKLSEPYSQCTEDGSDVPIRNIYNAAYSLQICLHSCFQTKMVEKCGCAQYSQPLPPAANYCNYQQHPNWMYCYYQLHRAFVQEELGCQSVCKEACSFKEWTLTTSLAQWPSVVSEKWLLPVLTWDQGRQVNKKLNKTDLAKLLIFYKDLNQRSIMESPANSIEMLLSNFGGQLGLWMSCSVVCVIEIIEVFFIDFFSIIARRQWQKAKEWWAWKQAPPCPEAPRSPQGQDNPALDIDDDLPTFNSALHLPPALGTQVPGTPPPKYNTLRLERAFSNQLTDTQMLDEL

UTP receptors = UTP receptors in intestines (Rhodamine green-UTP staining); assay type: in vivo, mouse; conditions: knockout mice, ATP rescue, 65 day old mice
Description: (§1) All tissues were sectioned and washed in phosphate buffered saline. Stock solutions (1 mM) of stains obtained from Molecular Probes were used. Two microliters/ml of either CaGreen-AM. (Molecular Probes) or Rhodamine green-UTP (Molecular Probes) was added to the tissue, then incubated for 1-2 hrs All samples were examined on a Noran Odyssey CLSM with a Nikon Diaphot inverted microscope. The software used for the imaging was Noran's Intervision running on a SGI Indy workstation.
Multiple purinergic receptors and multiple signal transduction pathways are activated in different membrane domains of tracheal epithelia (Hwang, Schwiebert et al. 1996) (Devidas and Guggino 1997). Functional characterization of the P2 purinoceptor superfamily support a diverse functional role for ATP and related nucleotides in the regulation of tissue function (Williams 1996). To examine the possible role of these purinergic receptors, changes in UTP receptors in treated and normal intestines were examined using UTP labeled with fluorescent rhodamine green to stain sections of intestines.
Changes in UTP receptors in ATP-treated intestines were examined using UTP labeled with fluorescent rhodamine green to stain sections of intestines.

cftr deficient mice = experiment: Survival of mice after in utero ATP or cftr treatment; assay type: in vivo, mouse
Description: (§2) Female heterozygous UNC knockout X C57bl/6 mouse 5th generation backcross mice were mated with either heterozygous and previously rescued homozygous knockout mice. At 15-16 days gestation animals were anesthetized as in Example (II)(C)(2) and the fetuses surgically exposed for injection. Virus (10^9 particles/ml of amniotic fluid) was injected into the amniotic fluid. Normal delivery of the animals was allowed to take place.
as §2, with “20 ul” for “Virus (10^9 particles/ml”, “a 20 mM ATP in sterile physiological saline” for “amniotic fluid)”

[1] = tested on: intracellular calcium stores; experiment: Intracellular calcium stores in intestines (Calcium Green, confocal microscopy); assay type: in vivo, mouse; conditions: cftr−/− mice, in utero ATP-treatment, examined at 65 days old
Description: as §1
Calcium plays an integral role in secretion. […] Calcium Green™, a flourescent stain for intracellular calcium, was applied to cross-sections of both control and in utero cftr-treated cftr−/− and cftr+/− mice. All samples were examined by confocal microscopy.
Intracellular calcium stores were evaluated after in utero ATP rescue, as previously described.

non-CFTR Cl- channels = conditions: cited from earlier work
[2] = Table 8, living greater than 60 days

For `Nc1nc(N)c2nc(-c3ccccc3)c(N)nc2n1` [triamterene], the ENaC conduction (ENaC) is listed as “block conduction”.
In the case of `N=C(N)NC(=O)c1nc(Cl)c(N)nc1N` [Amiloride], the ENaC conduction (ENaC) is listed as “block conduction”.
With `Nc1ncnc2c1ncn2[C@@H]1O[C@H](COP(=O)(O)OP(=O)(O)OP(=O)(O)O)[C@@H](O)[C@H]1O` [ATP, adenosine triphosphate] the “UTP receptors in intestines” value (UTP receptors) was “restored the UTP receptors”, the “survival of cftr deficient mice” value (cftr deficient mice; 20 ul of 20 mM ATP into amniotic fluid at 15-16 days gestation) was “improved the survival” and the “+/− Survivors, number” value (cftr deficient mice; [2]) was 9. The “−/− Survivors, number” value (cftr deficient mice; [2]) was 3, the “+/+ Survivors, number” value (cftr deficient mice; Table 8, living greater than 60 days, treated at 15-16 days gestation) was 4 and the “+/+ Survivors (%)” value (cftr deficient mice; Table 8, share of survivors) was 25%. For the same molecule, the “+/− Survivors (%)” value (cftr deficient mice; Table 8, share of survivors) was 56%, the “−/− Survivors (%)” value (cftr deficient mice; Table 8, share of survivors) was 19% and the “toxicity inferred from genotype distribution of survivors” value (cftr deficient mice; regardless of genotype) was “non-toxic”. The “intracellular Ca2+ stores in intestines” value [1] was “restored intracellular Ca2+ in cells of the crypt”.
For `O=c1ccn([C@@H]2O[C@H](COP(=O)(O)OP(=O)(O)OP(=O)(O)O)[C@@H](O)[C@H]2O)c(=O)[nH]1` [UTP, uridine triphosphate], the “Cl- (and liquid) secretion” value (non-CFTR Cl- channels; aerosolized, CF airway epithelia) is listed as “induces Cl- (and liquid) secretion”, the mucociliary clearance (non-CFTR Cl- channels; aerosolized, pilot studies in normal subjects) is listed as “effective stimulator of mucociliary clearance” and the tolerability (non-CFTR Cl- channels; short-term aerosolized, normal subjects and patients with CF) is listed as “well tolerated”.
